Test results: PubChem BioAssay AID330 (DTP/NCI, 2004)
Values joined by “and” are separate entries in the source; they are usually repeats but may differ in a detail not shown here. Equal values may be shown once. Inconclusive results and toxic doses are left out.

Tested on: P388 leukemia ip, CD2F1 mice, survival T/C
Experiment: NCI In Vivo Anticancer Drug Screen. Data for tumor model P388 Leukemia (intraperitoneal) in CD2F1 (CDF1) mice
Conditions: endpoint: median survival time, higher = longer survival
How it was run: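 Mice carrying the transplanted tumor received test compound or vehicle. Survival was recorded in each group, and the value is the treated-group measurement divided by that of the vehicle-treated control group.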

[1] = dose: 25.0 mg/kg/injection, schedule: Q01DX009 (ip), vehicle: saline with Tween-80
[2] = dose: 50.0 mg/kg/injection, schedule: Q01DX009 (ip), vehicle: saline with Tween-80
[3] = dose: 200.0 mg/kg/injection, schedule: Q01DX009 (ip), vehicle: saline with Tween-80
[4] = dose: 50.0 mg/kg/injection, schedule: Q01DX009 (ip), vehicle: saline
[5] = dose: 100.0 mg/kg/injection, schedule: Q01DX009 (ip), vehicle: saline
[6] = dose: 200.0 mg/kg/injection, schedule: Q01DX009 (ip), vehicle: saline
[7] = dose: 12.5 mg/kg/injection, schedule: Q01DX009 (ip), vehicle: saline
[8] = dose: 25.0 mg/kg/injection, schedule: Q01DX009 (ip), vehicle: saline
[9] = dose: 50.0 mg/kg/injection, schedule: Q01DX005 (ip), vehicle: saline
[10] = dose: 100.0 mg/kg/injection, schedule: Q01DX005 (ip), vehicle: saline
[11] = dose: 100.0 mg/kg/injection, schedule: Q04DX003 (ip), vehicle: Klucel (hydroxypropylcellulose) (HPC)
[12] = dose: 200.0 mg/kg/injection, schedule: Q04DX003 (ip), vehicle: Klucel (hydroxypropylcellulose) (HPC)
[13] = dose: 400.0 mg/kg/injection, schedule: Q04DX003 (ip), vehicle: Klucel (hydroxypropylcellulose) (HPC)
[14] = dose: 50.0 mg/kg/injection, schedule: Q01DX005 (ip), vehicle: saline with Tween-80
[15] = dose: 100.0 mg/kg/injection, schedule: Q01DX005 (ip), vehicle: saline with Tween-80
[16] = dose: 200.0 mg/kg/injection, schedule: Q01DX005 (ip), vehicle: saline with Tween-80
[17] = dose: 100.0 mg/kg/injection, schedule: Q01DX001 (ip), vehicle: Klucel (hydroxypropylcellulose) (HPC)
[18] = dose: 200.0 mg/kg/injection, schedule: Q01DX001 (ip), vehicle: Klucel (hydroxypropylcellulose) (HPC)
[19] = dose: 400.0 mg/kg/injection, schedule: Q01DX001 (ip), vehicle: Klucel (hydroxypropylcellulose) (HPC)
[20] = dose: 12.5 mg/kg/injection, schedule: Q01DX009 (ip), vehicle: saline with Tween-80
[21] = dose: 50.0 mg/kg/injection, schedule: Q01DX005 (ip), vehicle: Klucel (hydroxypropylcellulose) (HPC)
[22] = dose: 100.0 mg/kg/injection, schedule: Q01DX005 (ip), vehicle: Klucel (hydroxypropylcellulose) (HPC)
[23] = dose: 200.0 mg/kg/injection, schedule: Q01DX005 (ip), vehicle: Klucel (hydroxypropylcellulose) (HPC)

[N-]=[N+]=NC1=CC(=O)C(c2ccccc2)=CC1=O
T/C [1]: 100 % of control
T/C [2]: 95 % of control
T/C [3]: 103 % of control

c1ccc(C(Sc2c[nH]c3ccccc23)(c2ccccc2)c2ccccc2)cc1 (tested in a mixture with another compound)
T/C (dose: 100.0 mg/kg/injection, schedule: Q01DX001 (ip), vehicle: saline with Tween-80): 100 % of control
T/C (dose: 200.0 mg/kg/injection, schedule: Q01DX001 (ip), vehicle: saline with Tween-80): 90 % of control
T/C (dose: 400.0 mg/kg/injection, schedule: Q01DX001 (ip), vehicle: saline with Tween-80): 92 % of control

Nc1cc(C(F)(F)F)ccc1-c1ccn[nH]1
T/C [4]: 94 % of control
T/C [5]: 97 % of control
T/C [6]: 96 % of control

COc1ncnc(Sc2ncccn2)c1[N+](=O)[O-]
T/C [7]: 103 % of control and 89 % of control
T/C [8]: 103 % of control and 105 % of control
T/C [4]: 102 % of control and 104 % of control and 90 % of control
T/C [5]: 100 % of control and 123 % of control and 89 % of control
T/C [6]: 109 % of control

CCN(CC)CCN1C(=O)c2cccc(N)c2C1=O
T/C [9]: 103 % of control
T/C [10]: 101 % of control

CCCCC(=O)CCCCCCCCC(O)CC(=O)OCC (stereo unspecified)
T/C [11]: 100 % of control
T/C [12]: 103 % of control
T/C [13]: 102 % of control

CC1=NN(c2ccccc2)C(=O)C1C1c2ccccc2S(=O)(=O)c2ccccc21 (stereo unspecified)
T/C (dose: 60.0 mg/kg/injection, schedule: Q01DX005 (ip), vehicle: Klucel (hydroxypropylcellulose) (HPC)): 97 % of control
T/C (dose: 120.0 mg/kg/injection, schedule: Q01DX005 (ip), vehicle: Klucel (hydroxypropylcellulose) (HPC)): 87 % of control

N#CC(C#N)=C1CCNc2ccccc21
T/C (dose: 100.0 mg/kg/injection, schedule: Q01DX009 (ip), vehicle: saline with Tween-80): 95 % of control
T/C [3]: 95 % of control
T/C (dose: 400.0 mg/kg/injection, schedule: Q01DX009 (ip), vehicle: saline with Tween-80): 95 % of control

C/C=C(/C(=O)O)S(=O)(=O)O.[Ag]
T/C (dose: 20.0 mg/kg/injection, schedule: Q01DX009 (ip), vehicle: saline with Tween-80): 103 % of control

CCOc1c(N=Nc2ccc(OC)cc2)c(-c2ccccc2)nn1C(=S)S
T/C [14]: 102 % of control
T/C [15]: 103 % of control
T/C [16]: 102 % of control

COC(=O)C1(C)CCCC2(C)c3cc(O)c(C(C)C)cc3CCC12 (stereo unspecified)
T/C [17]: 94 % of control
T/C [18]: 94 % of control
T/C [19]: 100 % of control

CCN(CC)CCCNc1ccc([N+](=O)[O-])c2no[n+]([O-])c12
T/C [4]: 99 % of control
T/C [5]: 100 % of control

Cc1cc2n[se]nc2cc1C
T/C (dose: 6.25 mg/kg/injection, schedule: Q01DX009 (ip), vehicle: Klucel (hydroxypropylcellulose) (HPC)): 107 % of control
T/C (dose: 12.5 mg/kg/injection, schedule: Q01DX009 (ip), vehicle: Klucel (hydroxypropylcellulose) (HPC)): 96 % of control
T/C (dose: 25.0 mg/kg/injection, schedule: Q01DX009 (ip), vehicle: Klucel (hydroxypropylcellulose) (HPC)): 100 % of control

O=C(O)CCc1nc(-c2ccccc2)nc2c1CCc1ccccc1-2
T/C (dose: 100.0 mg/kg/injection, schedule: Q04DX002 (ip), vehicle: Klucel (hydroxypropylcellulose) (HPC)): 92 % of control
T/C (dose: 200.0 mg/kg/injection, schedule: Q04DX002 (ip), vehicle: Klucel (hydroxypropylcellulose) (HPC)): 97 % of control
T/C (dose: 400.0 mg/kg/injection, schedule: Q04DX002 (ip), vehicle: Klucel (hydroxypropylcellulose) (HPC)): 98 % of control

Cc1ccc(S(=O)(=O)CC(=O)CC(=O)C(C#N)c2cccc(Cl)c2)cc1 (stereo unspecified)
T/C [14]: 100 % of control
T/C [15]: 99 % of control
T/C [16]: 107 % of control

Nc1[nH]c(=S)[nH]c(=O)c1N=Cc1ccc(Cl)c(Cl)c1
T/C (dose: 50.0 mg/kg/injection, schedule: Q01DX001 (ip), vehicle: Klucel (hydroxypropylcellulose) (HPC)): 100 % of control
T/C [17]: 100 % of control and 102 % of control and 114 % of control
T/C [18]: 103 % of control (2×) and 116 % of control
T/C [19]: 107 % of control and 110 % of control

CCOC(=O)C[N+]1(C)C2CCC1CC(OC(=O)C(CO)c1ccccc1)C2 (stereo unspecified)
T/C [7]: 100 % of control
T/C [8]: 100 % of control

C[N+]1(C)N=C([O-])N(c2ccccc2C(F)(F)F)C1=O
T/C [20]: 99 % of control
T/C [1]: 99 % of control
T/C [2]: 106 % of control

CC(=O)NC(CCS)C(N)=O (stereo unspecified)
T/C [21]: 87 % of control
T/C [22]: 99 % of control
T/C [23]: 97 % of control

C=C1C(=O)C(CCCC)=C(CCC)C1O (stereo unspecified)
T/C (dose: 60.0 mg/kg/injection, schedule: Q01DX005 (ip), vehicle: saline with Tween-80): 100 % of control
T/C (dose: 120.0 mg/kg/injection, schedule: Q01DX005 (ip), vehicle: saline with Tween-80): 107 % of control

O=C1CN(CCCN2CCOCC2)CC(=O)N2CCCCN12
T/C [9]: 100 % of control
T/C [10]: 105 % of control
T/C (dose: 200.0 mg/kg/injection, schedule: Q01DX005 (ip), vehicle: saline): 102 % of control

O=S1(=O)NC(=NC2CCCCC2)c2ccccc21
T/C [14]: 105 % of control
T/C [15]: 105 % of control
T/C [16]: 99 % of control

c1ccc([Te][Te]c2ccccc2)cc1
T/C [14]: 163 % of control
T/C [16]: 105 % of control

N#Cc1ccc(OCCCCOc2ccc(C#N)cc2)cc1
T/C (dose: 6.25 mg/kg/injection, schedule: Q01DX005 (ip), vehicle: saline with Tween-80): 95 % of control
T/C (dose: 12.5 mg/kg/injection, schedule: Q01DX005 (ip), vehicle: saline with Tween-80): 97 % of control
T/C (dose: 25.0 mg/kg/injection, schedule: Q01DX005 (ip), vehicle: saline with Tween-80): 91 % of control

CON(C)CC(Cl)c1ccccc1 (stereo unspecified)
T/C [20]: 109 % of control
T/C [1]: 109 % of control
T/C [2]: 104 % of control

CCC[CH2][Sn]([CH2]CCC)([CH2]CCC)[CH2]CCN(C)C
T/C [4]: 99 % of control
T/C [5]: 100 % of control

CC(C)C1NC(=O)N(C2CCCCCC2)C1=O (stereo unspecified)
T/C [21]: 100 % of control
T/C [22]: 96 % of control
T/C [23]: 100 % of control

CC1CCC2(C(=O)O)CCC3(C)C(=CCC4C5(C)CC(O)C(O)C(C)(C(=O)O)C5CCC43C)C2C1(C)O (stereo unspecified)
T/C (dose: 33.0 mg/kg/injection, schedule: Q01DX001 (ip), vehicle: saline with Tween-80): 100 % of control
T/C (dose: 50.0 mg/kg/injection, schedule: Q01DX001 (ip), vehicle: saline with Tween-80): 100 % of control
T/C (dose: 75.0 mg/kg/injection, schedule: Q01DX001 (ip), vehicle: saline with Tween-80): 90 % of control

C=C1C[C@]2(C)c3ccccc3NC(=O)[C@H]12
T/C [21]: 105 % of control
T/C [22]: 107 % of control
T/C [23]: 98 % of control

O=C1c2ccccc2C(=O)c2c(NCCN3CCCCC3)ccc(NCCN3CCCCC3)c21
T/C (dose: 4.0 mg/kg/injection, schedule: Q01DX009 (ip), vehicle: acid diluted with saline): 102 % of control
T/C (dose: 8.0 mg/kg/injection, schedule: Q01DX009 (ip), vehicle: acid diluted with saline): 100 % of control
T/C (dose: 12.5 mg/kg/injection, schedule: Q01DX009 (ip), vehicle: other): 98 % of control
T/C (dose: 16.0 mg/kg/injection, schedule: Q01DX009 (ip), vehicle: acid diluted with saline): 103 % of control
T/C (dose: 25.0 mg/kg/injection, schedule: Q01DX009 (ip), vehicle: other): 104 % of control
T/C (dose: 32.0 mg/kg/injection, schedule: Q01DX009 (ip), vehicle: acid diluted with saline): 101 % of control
T/C (dose: 50.0 mg/kg/injection, schedule: Q01DX009 (ip), vehicle: other): 104 % of control
T/C (dose: 64.0 mg/kg/injection, schedule: Q01DX009 (ip), vehicle: acid diluted with saline): 104 % of control
T/C (dose: 100.0 mg/kg/injection, schedule: Q01DX009 (ip), vehicle: other): 121 % of control

CP1(=S)CC(Br)=C2CCCCC21 (stereo unspecified)
T/C [11]: 108 % of control
T/C [12]: 106 % of control
T/C [13]: 107 % of control

CC1=NC(=O)CC2=C1C(C)N(Cc1ccccc1)C2=O (stereo unspecified)
T/C [4]: 98 % of control
T/C [5]: 94 % of control
T/C [6]: 99 % of control
